Reference: patent US11873295B2, “Allosteric chromenone inhibitors of phosphoinositide 3-kinase (PI3K) for the treatment of disease” (Petra Pharma Corporation, priority 2021, dated 2024)

Columns and labels:
[1] = target: T1, human full length PIK3KA Wild-type (p110α/p85α complex) (Homo sapiens, UniProt P42336); experiment: PI3K-alpha kinase (PIK3CA) biochemical activity, wild-type, ADP-Glo; conditions: PI3K-α (PIK3CA) biochemical
T1 construct: Recombinant, catalytically active human full length PIK3KA Wild-type and H1047R mutant were purchased as 1:1 complex; 6xHis (N); purchased EMD Millipore Sigma 14-602M
From the text: (§1) PI3K-Alpha Kinase (PIK3CA) Activity, Wild-Type and H1047R Mutant and Determining IC50 Values for Inhibitors
(§2) Recombinant, catalytically active human full length PIK3KA Wild-type and H1047R mutant were purchased as 1:1 complex of N-terminal 6× his tagged p110α (catalytic) and untagged p85α (regulatory subunit) from EMD Millipore Sigma (cat. no. 14-602M and 14-792M, respectively). PIP2diC8 (Avanti Polar Lipids Inc., cat. no. 850185) or Soy PI (Avanti Polar Lipids Inc., cat. No. 840044P) was used as lipid substrate. PIP2diC8 or PI lyophilized powder was dissolved in milliQ water to a concentration of 1 mM just before use. 10 mM stock compounds in DMSO were serially diluted 1:3 to generate a 10-point curve and plated using an acoustic liquid handler system (Echo 550 series instrument, Labcyte). A 10× intermediate compound plate (200 uM starting compound concentration and 10% DMSO) was prepared before starting the reaction. A typical reaction mixture (50 uL) comprised 40 mM HEPES buffer, pH 7.4, 25 mM MgCl2, 0.01% v/v triton-X-100, 1% v/v DMSO, 20 mM NaCl, 1-5 nM WT or H1047R PI3K protein, 20 uM ATP, and 50 uM PIP2diC8 or Soy PI. 1% DMSO buffer alone without test compound was employed as MAX control (full activity in the absence of any inhibitor), and no enzyme control was used to determine the level of background Adenosine 5′-diphosphate (ADP) (MIN control). First, Wild-type (WT) and H1047R mutant protein in kinase buffer with all components except ATP were incubated with or without compound at 27° C. for 1 h. After the pre-incubation, the reaction was initiated by the addition of 20 uL of 50 uM ATP (20 uM final concentration). The reaction was allowed to proceed until about 10% conversion of ATP (2 uM ADP) at 27° C. After that time, 5 uL of reaction was mixed with 5 uL of ADP-Kinase Glo Reagent (ADP-Glo Kinase assay kit, Promega cat. no. V9102) supplemented with MgCl2 10 mM to stop the reaction and deplete the remaining ATP for 40 min at room temperature. Then, 10 uL of Kinase Detection Reagent (ADP-Glo Kinase assay kit, Promega cat. no. V9102) was added to simultaneously convert ADP to ATP and allow the newly synthesized ATP to be measured using a luciferase/luciferin reaction. After 30 min at room temperature the light generated was measured using a luminometer (EnVision plate reader, Perkin Elmer). Process data through Genedata-Screener tool. Relative IC50 values are determined using luminescence units by calculating percent inhibition with respect to on-plate “MIN” and “MAX” controls. Data was analyzed using a 4-parameter nonlinear logistic equation (four-parameter logistic concentration-response curve): Y=bot+[(top−bot)/1+(x/IC50)slope] where Y=% inhibition, X=concentration yielding y % inhibition, Bottom=minimum value of y attained by curve, Top=maximum value of y attained by curve and Slope=steepness of curve at IC50. % Inh=[(median Max−x/median Max−median Min)]·100 IC50: concentration of compound that reduces a given response (ligand binding, enzyme response) by 50%. IC50 relative: concentration giving half the compound's maximum response.
(§3) For IC50 values shown in Table A, “A” means IC50<0.5 μM; “B” means IC50 ranging between 0.5 μM and 1.0 μM; “C” means IC50 ranging between 1 μM and 5 μM; “D” means IC50 ranging between 5 μM and 10 μM; “E” means IC50>10 μM.

[2] = target: T2, human full length PIK3KA H1047R mutant (p110α/p85α complex) (Homo sapiens, UniProt P42336, H1047R); experiment: PI3K-alpha kinase (PIK3CA) biochemical activity, H1047R mutant, ADP-Glo; conditions: for IC50: PI3K-α (PIK3CA) biochemical, H1047R mutant
T2 construct: Recombinant, catalytically active human full length PIK3KA Wild-type and H1047R mutant were purchased as 1:1 complex; 6xHis (N); purchased EMD Millipore Sigma 14-792M
T2 sequence (P42336 whole entry H1047R): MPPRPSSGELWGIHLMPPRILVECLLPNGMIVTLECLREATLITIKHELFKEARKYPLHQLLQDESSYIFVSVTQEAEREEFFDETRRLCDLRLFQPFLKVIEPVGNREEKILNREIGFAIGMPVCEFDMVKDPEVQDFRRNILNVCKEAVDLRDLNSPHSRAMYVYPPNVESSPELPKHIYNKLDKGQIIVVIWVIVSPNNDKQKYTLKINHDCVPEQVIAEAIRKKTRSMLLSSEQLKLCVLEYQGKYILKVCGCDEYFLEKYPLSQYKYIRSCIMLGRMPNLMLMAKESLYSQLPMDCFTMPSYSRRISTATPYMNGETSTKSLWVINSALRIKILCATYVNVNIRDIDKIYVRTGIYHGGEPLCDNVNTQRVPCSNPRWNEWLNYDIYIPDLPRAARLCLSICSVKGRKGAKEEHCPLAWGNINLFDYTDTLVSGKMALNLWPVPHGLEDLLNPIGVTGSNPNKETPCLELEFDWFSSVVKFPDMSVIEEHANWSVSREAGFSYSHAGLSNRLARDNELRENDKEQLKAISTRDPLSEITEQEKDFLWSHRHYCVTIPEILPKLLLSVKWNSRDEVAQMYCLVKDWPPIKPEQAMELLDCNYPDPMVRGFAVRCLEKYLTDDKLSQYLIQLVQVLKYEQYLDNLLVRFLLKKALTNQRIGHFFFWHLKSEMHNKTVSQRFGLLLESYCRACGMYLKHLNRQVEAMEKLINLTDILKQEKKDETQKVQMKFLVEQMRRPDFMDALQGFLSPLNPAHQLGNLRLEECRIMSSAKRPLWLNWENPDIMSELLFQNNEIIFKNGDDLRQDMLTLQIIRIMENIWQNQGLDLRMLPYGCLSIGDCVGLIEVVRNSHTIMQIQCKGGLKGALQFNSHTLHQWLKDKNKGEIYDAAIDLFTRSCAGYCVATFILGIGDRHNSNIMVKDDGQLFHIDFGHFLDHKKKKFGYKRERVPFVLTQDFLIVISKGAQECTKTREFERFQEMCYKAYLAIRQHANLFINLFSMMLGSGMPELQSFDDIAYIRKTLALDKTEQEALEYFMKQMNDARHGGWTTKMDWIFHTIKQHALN
T2 sequence (P27986 whole entry partner): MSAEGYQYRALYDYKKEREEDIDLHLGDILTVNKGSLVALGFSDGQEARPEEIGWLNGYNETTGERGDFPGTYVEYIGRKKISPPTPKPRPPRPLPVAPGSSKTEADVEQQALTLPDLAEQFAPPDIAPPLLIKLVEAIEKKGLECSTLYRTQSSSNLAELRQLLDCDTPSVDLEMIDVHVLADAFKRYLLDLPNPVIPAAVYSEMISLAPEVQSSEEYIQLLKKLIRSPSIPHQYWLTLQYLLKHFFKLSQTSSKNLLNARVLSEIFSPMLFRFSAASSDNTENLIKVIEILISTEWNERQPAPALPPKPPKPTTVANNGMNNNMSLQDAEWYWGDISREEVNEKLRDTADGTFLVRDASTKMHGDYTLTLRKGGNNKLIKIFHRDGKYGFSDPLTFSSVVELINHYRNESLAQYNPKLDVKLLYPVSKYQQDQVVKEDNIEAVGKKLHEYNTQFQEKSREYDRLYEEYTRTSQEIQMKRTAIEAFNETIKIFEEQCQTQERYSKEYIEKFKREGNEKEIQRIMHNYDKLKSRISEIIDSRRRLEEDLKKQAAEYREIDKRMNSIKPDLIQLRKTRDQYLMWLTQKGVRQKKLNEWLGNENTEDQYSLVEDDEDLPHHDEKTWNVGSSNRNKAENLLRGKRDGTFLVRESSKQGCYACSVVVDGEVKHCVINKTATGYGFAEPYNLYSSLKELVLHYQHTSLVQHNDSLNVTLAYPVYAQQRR
From the text: as §1, §2, §3

[3] = PIP2diC8 lipid substrate (footnote 1)

Row | SMILES | IC50 ([1]; Soy PI lipid substrate) [µM] | IC50 ([2]; Soy PI lipid substrate) [µM] | IC50 WT/IC50 H1047R ([2]; ratio of biochemical IC50 wild-type to H1047R mutant, Soy PI lipid substrate) | IC50 [1, 3] [µM] | IC50 [2, 3] [µM]
1 | Cc1cc([C@@H](C)Nc2ccccc2C(=O)O)c2oc(-c3ccccc3F)cc(=O)c2c1 [Example 11, 2-[[(1R)-1-[2-(2-Fluorophenyl)-6-methyl-4-oxo-chromen-8-yl]ethyl]amino]benzoic acid] | 1 to 5 | < 0.5 | – | – | –
2 | Cc1cc(C(C)Nc2ccccc2C(=O)O)c2oc(-c3ccc(C4(C)CC4)cc3)cc(=O)c2c1 (stereo not drawn) [Example 12, 2-[1-[6-Methyl-2-[4-(1-methylcyclopropyl)-phenyl]-4-oxo-chromen-8-yl]ethylamino]benzoic acid 2,2,2-trifluoroacetic acid] | 5 to 10 | 0.5 to 1 | – | – | –
3 | Cc1cc(C(C)Nc2ccccc2C(=O)O)c2oc(-c3cccc(-c4cnn(C)c4)c3)cc(=O)c2c1.O=C(O)C(F)(F)F (stereo not drawn) [Example 13, 2-[1-[6-Methyl-2-[3-(1-methylpyrazol-4-yl)phenyl]-4-oxo-chromen-8-yl]ethylamino]benzoic acid 2,2,2-trifluoroacetic acid] | 1 to 5 | < 0.5 | *For Example 13, IC50 WT/IC50 H1047R = 7.7 | – | –
4 | Cc1cc([C@@H](C)Nc2ccccc2C(=O)O)c2oc(-c3cccc(C#N)c3)cc(=O)c2c1 [Example 16, 2-[[(1R)-1-[2-(3-Cyanophenyl)-6-methyl-4-oxo-chromen-8-yl]ethyl]amino]benzoic acid] | – | – | – | 0.5 to 1 | < 0.5
5 | Cc1cc([C@@H](C)Nc2ccccc2C(=O)O)c2oc(-c3ccc(C#N)cc3)cc(=O)c2c1 [Example 17, 2-[[(1R)-1-[2-(4-Cyanophenyl)-6-methyl-4-oxo-chromen-8-yl]ethyl]amino]benzoic acid] | – | – | – | < 0.5 | < 0.5
6 | Cc1cc([C@@H](C)Nc2ccccc2C(=O)O)c2oc(-c3cccc(F)c3)cc(=O)c2c1 [Example 18, 2-[[(1R)-1-[2-(3-Fluorophenyl)-6-methyl-4-oxo-chromen-8-yl]ethyl]amino]benzoic acid] | – | – | – | < 0.5 | < 0.5
7 | Cc1cc([C@@H](C)Nc2ccccc2C(=O)O)c2oc(-c3ccc(F)cc3)cc(=O)c2c1 [Example 19, 2-[[(1R)-1-[2-(4-Fluorophenyl)-6-methyl-4-oxo-chromen-8-yl]ethyl]amino]benzoic acid] | – | – | – | 1 to 5 | < 0.5
8 | Cc1cc([C@@H](C)Nc2ccc(F)cc2C(=O)O)c2oc(-c3ccccc3)cc(=O)c2c1 [Example 20, 5-Fluoro-2-[[(1R)-1-(6-methyl-4-oxo-2-plienyl-chromen-8-yl)ethyl]amino]benzoic acid] | – | – | – | < 0.5 | < 0.5
9 | Cc1cc([C@@H](C)Nc2ccccc2C(=O)O)c2oc(-c3ccccc3)cc(=O)c2c1 [Example 22, 2-[[(1R)-1-(6-Methyl-4-oxo-2-phenyl-chromen-8-yl)ethyl]amino]benzoic acid] | – | – | – | < 0.5 | < 0.5
10 | Cc1cc(C(C)Nc2sc(C)nc2C(=O)O)c2oc(-c3ccccc3)cc(=O)c2c1 (stereo not drawn) [Example 23, 2-Methyl-5-[1-(6-methyl-4-oxo-2-phenyl-chromen-8-yl)ethylamino]-thiazole-4-carboxylic acid 2,2,2-trifluoroacetic acid] | 5 to 10 | < 0.5 | – | – | –
11 | C[C@@H](Nc1ccccc1C(=O)O)c1cc(F)cc2c(=O)cc(-c3ccccc3)oc12 [Example 24, 2-[[(1R)-1-(6-Fluoro-4-oxo-2-phenyl-chromen-8-yl)ethyl]amino]benzoic acid] | 1 to 5 | < 0.5 | – | – | –
12 | Cc1cc([C@@H](C)Nc2ccc(C(F)(F)F)nc2C(=O)O)c2oc(-c3ccccc3)cc(=O)c2c1 [Example 27, 3-[[(1R)-1-(6-Methyl-4-oxo-2-phenyl-chromen-8-yl)ethyl]amino]-6-(trifluoromethyl)-pyridine-2-carboxylic acid] | 1 to 5 | < 0.5 | – | – | –
13 | Cc1cc([C@@H](C)Nc2ccccc2C(=O)O)c2oc(-c3ccccc3C#N)c(C)c(=O)c2c1 [Example 34, 2-[[(1R)-1-[2-(2-Cyanophenyl)-3,6-dimethyl-4-oxo-chromen-8-yl]ethyl]amino]benzoic acid] | > 10 | < 0.5 | – | – | –
14 | Cc1cc(C(C)Nc2ccccc2C(=O)O)c2oc(-c3ccc(N4CCCC4)cc3)cc(=O)c2c1 (stereo not drawn) [Example 45, 2-[1-[6-Methyl-4-oxo-2-(4-pyrrolidin-1-ylphenyl)chromen-8-yl]ethylamino]benzoic acid 2,2,2-trifluoroacetic acid] | > 10 | < 0.5 | – | – | –
15 | Cc1cc([C@@H](C)Nc2ccc(C)nc2C(=O)O)c2oc(-c3ccccc3)cc(=O)c2c1 [Example 46, 6-Methyl-3-[[(1R)-1-(6-methyl-4-oxo-2-phenyl-chromen-8-yl)ethyl]amino]-pyridine-2-carboxylic acid] | 5 to 10 | < 0.5 | – | – | –
16 | Cc1cc([C@@H](C)Nc2ccccc2C(=O)O)c2oc(-c3ccc(C#N)cc3F)cc(=O)c2c1 [Example 51, 2-[[(1R)-1-[2-(4-Cyano-2-fluoro-phenyl)-6-methyl-4-oxo-chromen-8-yl]ethyl]amino]benzoic acid 2,2,2-trifluoroacetic acid] | 1 to 5 | < 0.5 | – | – | –
17 | Cc1cc([C@@H](C)Nc2ccccc2C(=O)O)c2oc(-c3ccc(C#N)c(F)c3)cc(=O)c2c1 [Example 56, 2-[[(1R)-1-[2-(4-Cyano-3-fluoro-phenyl)-6-methyl-4-oxo-chromen-8-yl]ethyl]amino]benzoic acid 2,2,2-trifluoroacetic acid] | 1 to 5 | < 0.5 | – | – | –
18 | Cc1cc([C@@H](C)Nc2ccccc2C(=O)O)c2oc(-c3ccc(F)cc3F)cc(=O)c2c1 [Example 57, 2-[[(1R)-1-[2-(2,4-Difluorophenyl)-6-methyl-4-oxo-chromen-8-yl]ethyl]amino]benzoic acid 2,2,2-trifluoroacetic acid] | 1 to 5 | < 0.5 | – | – | –
19 | CC(Nc1ccccc1C(=O)O)c1cc(F)c(F)c2c(=O)cc(-c3ccccc3)oc12 (stereo not drawn) [Example 64, 2-[1-(5,6-Difluoro-4-oxo-2-phenyl-chromen-8-yl)ethylamino]benzoic acid 2,2,2-trifluoroacetic acid] | > 10 | < 0.5 | – | – | –
20 | Cc1cc([C@@H](C)Nc2c(Cl)ccc(F)c2C(=O)O)c2oc(-c3ccccc3)c(C)c(=O)c2c1 [Example 65, 3-Chloro-2-[[(1R)-1-(3,6-dimethyl-4-oxo-2-phenyl-chromen-8-yl)ethyl]amino]-6-fluoro-benzoic acid] | > 10 | > 10 | – | – | –
21 | Cc1cc([C@@H](C)Nc2ccccc2C(=O)O)c2oc(-c3cccc(C(F)F)c3)cc(=O)c2c1 [Example 71, 2-[[(1R)-1-[2-[3-(Difluoromethyl)phenyl]-6-methyl-4-oxo-chromen-8-yl]ethyl]amino]benzoic acid] | 1 to 5 | < 0.5 | – | – | –
22 | Cc1c(-c2ccccc2)oc2c([C@@H](C)Nc3ccccc3C(=O)O)cc(F)cc2c1=O [Example 72, 2-[[(1R)-1-(6-Fluoro-3-methyl-4-oxo-2-phenyl-chromen-8-yl)ethyl]amino]benzoic acid 2,2,2-trifluoroacetic acid] | 1 to 5 | 1 to 5 | – | – | –
